{
  "source": "patent US20250296914A1",
  "about": "“ANTIVIRAL COMPOUNDS AND COMPOSITIONS THEREFROM” (CONSEJO SUPERIOR DE INVESTIGACIONES CIENTÍFICAS, priority 2022, published 2025)",
  "key": {"WNV-GFP virus": {"test_system": "WNV-GFP virus", "type": "cell-based, West Nile Virus", "details": "Huh-7, MOI 0.01, 48 h, FIG. 2"}, "[1]": {"test_system": "SARS-CoV-2 stock strain NL/2020", "experiment": "Intracellular viral antigen (N protein) accumulation by immunofluorescence, Calu3", "type": "cell-based", "details": "Severe acute respiratory syndrome coronavirus 2; Calu-3, MOI 0.005, viral antigen staining, 48 h"}, "in vitro [2]": {"experiment": "in vitro", "details": "African green monkey"}, "in vitro [3]": {"experiment": "in vitro", "details": "human"}, "[4]": {"test_system": "SARS-CoV-2 stock strain NL/2020", "experiment": "Intracellular viral antigen (N protein) accumulation by immunofluorescence, Vero-E6", "type": "cell-based", "details": "Severe acute respiratory syndrome coronavirus 2, Vero C1008; Vero-E6, MOI 0.005, viral antigen staining, 24 h"}, "[5]": {"test_system": "SARS-CoV-2 stock strain NL/2020", "experiment": "Intracellular viral antigen (N protein) accumulation by immunofluorescence, A549-ACE2", "type": "cell-based", "details": "Severe acute respiratory syndrome coronavirus 2; A549-ACE2, MOI 0.005, viral antigen staining, 48 h"}, "[6]": {"test_system": "SARS-CoV-2 stock strain NL/2020", "experiment": "Protective effect against virus-induced cytopathic effect (crystal violet staining of Vero-E6 monolayer)", "type": "cell-based", "details": "Severe acute respiratory syndrome coronavirus 2, Vero C1008, 72 h, Vero-E6, SARS-CoV-2 MOI 0.001, 72 h"}, "VSV-GFP virus": {"test_system": "VSV-GFP virus", "type": "cell-based, Vesicular Stomatitis Virus"}, "in vitro [7]": {"experiment": "in vitro", "details": "human", "remark": "listed apart in the source"}, "hCoV-229E-GFP virus": {"test_system": "hCoV-229E-GFP virus", "type": "cell-based, Human coronavirus 229E"}},
  "data": [
    {"smiles": "COC(=O)c1cc(-c2ccc(N3CCCC3)nc2)ccc1NC(C#N)[C@H](Cc1c[nH]c2ccccc12)NC(=O)OC(C)(C)C", "note": "(stereo partly drawn) [(Iq), methyl 2-(((2S)-2-((tert-butoxycarbonyl)amino)-1-cyano-3-(1H-indol-3-yl)propyl)amino)-5-(6-(pyrrolidin-1-yl)pyridin-3-yl)benzoate]", "values": [
      {"measurement": "Prevention of infection by West Nile Virus (GFP expression, in words)", "setting": "WNV-GFP virus", "value": "not being suitable for preventing the infection"},
      {"measurement": "EC50", "setting": "[1]", "value": 0.3, "unit": "µM"},
      {"measurement": "EC90", "setting": "[1]", "value": 2.5, "unit": "µM"},
      {"measurement": "CC50 at 48 h", "setting": "in vitro [2]", "value": "> 50", "unit": "µM"},
      {"measurement": "CC50 at 48 h", "setting": "in vitro [3]", "value": "> 50", "unit": "µM"},
      {"measurement": "EC50", "setting": "[4]", "value": 0.2, "unit": "µM"},
      {"measurement": "EC90", "setting": "[4]", "value": 0.9, "unit": "µM"},
      {"measurement": "EC50", "setting": "[5]", "value": 1.5, "unit": "µM"},
      {"measurement": "EC90", "setting": "[5]", "value": 5, "unit": "µM"},
      {"measurement": "minimal effective concentration", "setting": "[6]; 50 to 0.78 μM tested, read-out: PC MIN (lowest protective concentration)", "value": 1.56, "unit": "µM"},
      {"measurement": "EC50", "setting": "[6]; lowest fully protecting concentration averaged with next lower dilution, read-out: ESTIMATED EC50", "value": 1.17, "unit": "µM"},
      {"measurement": "Prevention of infection by Vesicular Stomatitis Virus (GFP expression, in words)", "setting": "VSV-GFP virus", "value": "not being suitable for preventing the infection"},
      {"measurement": "CC50 at 48 h", "setting": "in vitro [7]", "value": "> 50", "unit": "µM"},
      {"measurement": "Prevention of infection with 229E-GFP (GFP expression, in words)", "setting": "hCoV-229E-GFP virus", "value": "suitable for preventing efficiently the infection"}
    ]}
  ]
}
